Test [1] deals with T1, Recombinant human NK3 (hNK3) receptor (Homo sapiens, UniProt P29371).
T1 construct: expressed in transfected cells
T1 sequence (P29371 1-465): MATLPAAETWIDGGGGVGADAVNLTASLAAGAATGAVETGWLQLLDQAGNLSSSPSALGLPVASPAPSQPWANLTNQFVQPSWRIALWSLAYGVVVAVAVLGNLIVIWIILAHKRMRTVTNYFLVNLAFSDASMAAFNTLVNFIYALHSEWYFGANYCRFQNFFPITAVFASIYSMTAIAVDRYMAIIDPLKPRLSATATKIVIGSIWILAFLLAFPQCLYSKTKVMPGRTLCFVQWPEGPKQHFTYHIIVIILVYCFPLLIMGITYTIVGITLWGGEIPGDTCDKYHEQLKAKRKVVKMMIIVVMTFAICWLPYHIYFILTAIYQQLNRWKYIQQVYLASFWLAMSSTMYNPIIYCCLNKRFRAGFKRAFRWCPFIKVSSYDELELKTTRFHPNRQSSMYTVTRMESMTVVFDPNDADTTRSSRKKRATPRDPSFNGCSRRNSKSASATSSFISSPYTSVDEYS
The test can be described thus: NK3 receptor binding, [3H]SR142801 displacement, membrane preparations. To be noted: for Ki: second value of the cell NK1/NK3, read-out: pKi NK3 (converted); for pKi: second value of the cell pKi NK1/NK3, hNK3 receptor, [3H]SR142801. The method in brief: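 Buffer: Tris-HCl 50 mM pH 7.4, BSA 0.1%, MnCl2 4 mM, phosphoramidon 1 μM. ~2.5 μg membrane/well, 90 min RT. NSB with SB222200 (10 μM). Vacuum filtration over 0.3% PEI-treated GF/C, cold Tris/BSA washes, scintillation count; duplicates, ≥2 experiments.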

A further test concerns the target human NK1 receptor (Homo sapiens, UniProt P25103). The test can be described thus: NK1 receptor binding, [3H]substance P displacement, CHO cell membranes. The following applies: for Ki: first value of the cell NK1/NK3, read-out: pKi NK1 (converted); for pKi: first value of the cell pKi NK1/NK3, human NK1 receptor, [3H]substance P.

Here are results for 17 molecules from patent US8404708B2, “Dual NK1/NK3 receptor antagonists” (Hoffmann-La Roche Inc., priority 2004, dated 2013).

pKi: −log10 of the molar value. Read-outs that look alike come from different tables or passages of the source.

Chain of human NK1 receptor (P25103 whole entry): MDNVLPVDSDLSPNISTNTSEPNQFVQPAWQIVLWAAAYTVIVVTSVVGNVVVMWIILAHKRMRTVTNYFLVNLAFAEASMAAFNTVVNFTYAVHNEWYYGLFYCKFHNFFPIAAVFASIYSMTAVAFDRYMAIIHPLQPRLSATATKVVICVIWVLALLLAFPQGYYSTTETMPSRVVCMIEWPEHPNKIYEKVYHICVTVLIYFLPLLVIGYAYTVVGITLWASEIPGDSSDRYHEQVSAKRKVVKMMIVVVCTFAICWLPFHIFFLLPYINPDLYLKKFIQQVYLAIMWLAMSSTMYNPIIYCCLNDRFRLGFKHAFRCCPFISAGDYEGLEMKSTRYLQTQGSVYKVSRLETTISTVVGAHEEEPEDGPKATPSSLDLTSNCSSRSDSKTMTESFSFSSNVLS

Turning to `CN(C(=O)C(C)(C)c1cc(C(F)(F)F)cc(C(F)(F)F)c1)c1cnc(N2C[C@H](O)C[C@H]2CO)cc1-c1ccccc1N` [Example 213, (2S,4R)-N-[4-(2-Amino-phenyl)-6-(4-hydroxy-2-hydroxymethyl-pyrrolidin-1-yl)-pyridin-3-yl]-2-(3,5-bis-trifluoromethyl-phenyl)-N-methyl-isobutyramide], the Ki in test [1] was 3.24 nM; on human NK1 receptor, 0.661 nM.
A word on the pKi: it is the Ki on a negative log10 scale, so that one unit is a factor of ten. As to `Cc1ccccc1-c1cc(N(C)CCO)ncc1N(C)C(=O)C(C)(C)c1cc(C(F)(F)F)cc(C(F)(F)F)c1` [Example 117, 2-(3,5-Bis-trifluoromethyl-phenyl)-N-{6-[(2-hydroxy-ethyl)-methyl-amino]-4-o-tolyl-pyridin-3-yl}-N-methyl-isobutyramide], the results for the pKi (in test [1]; at human NK1 receptor) were 8.51 and 8.68, respectively.
With `Cc1ccc(F)cc1-c1cc(N2C[C@H](O)C[C@H]2CO)ncc1N(C)C(=O)C(C)(C)c1cc(C(F)(F)F)cc(C(F)(F)F)c1` [Example 227, (2S,4R)-2-(3,5-Bis-trifluoromethyl-phenyl)-N-[4-(5-fluoro-2-methyl-phenyl)-6-(4-hydroxy-2-hydroxymethyl-pyrrolidin-1-yl)-pyridin-3-yl]-N-methyl-isobutyramide], the Ki was 1.38 nM in test [1] and 1.1 nM on human NK1 receptor.
As to `Cc1c(F)cccc1-c1cc(N(CCO)CCO)ncc1N(C)C(=O)C(C)(C)c1cc(C(F)(F)F)cc(C(F)(F)F)c1` [Example 127, N-[6-[Bis-(2-hydroxy-ethyl)-amino]-4-(3-fluoro-2-methyl-phenyl)-pyridin-3-yl]-2-(3,5-bis-trifluoromethyl-phenyl)-N-methyl-isobutyramide], the pKi is 8.82 in test [1] and 8.66 at human NK1 receptor.
With `Cc1ccccc1-c1cc(N2C[C@H](F)C[C@H]2CO)ncc1N(C)C(=O)C(C)(C)c1cc(C(F)(F)F)cc(C(F)(F)F)c1` [Example 301, (2S,4R)-2-(3,5-Bis-trifluoromethyl-phenyl)-N-[6-(4-fluoro-2-hydroxymethyl-pyrrolidin-1-yl)-4-o-tolyl-pyridin-3-yl]-N-methyl-isobutyramide], the Ki in test [1] is 2.29 nM; on human NK1 receptor it was 2.14 nM.
Taken in the same sequence, the figures for `Cc1noc(C)c1-c1cc(N2C[C@H](O)C[C@H]2CO)ncc1N(C)C(=O)C(C)(C)c1cc(C(F)(F)F)cc(C(F)(F)F)c1` [Example 230, (2S,4R)-2-(3,5-Bis-trifluoromethyl-phenyl)-N-[4-(3,5-dimethyl-isoxazol-4-yl)-6-(4-hydroxy-2-hydroxymethyl-pyrrolidin-1-yl)-pyridin-3-yl]-N-methyl-isobutyramide] were 2.69 nM and 0.741 nM.
Taken in the same sequence, the figures for `CN(C(=O)C(C)(C)c1cc(C(F)(F)F)cc(C(F)(F)F)c1)c1cnc(N2C[C@@H](O)C[C@H]2CO)cc1-c1ccccc1C#N` [Example 245, (2S,4S)-2-(3,5-Bis-trifluoromethyl-phenyl)-N-[4-(2-cyano-phenyl)-6-(4-hydroxy-2-hydroxymethyl-pyrrolidin-1-yl)-pyridin-3-yl]-N-methyl-isobutyramide] were 1.1 nM and 1.2 nM.
With `CN(C(=O)C(C)(C)c1cc(C(F)(F)F)cc(C(F)(F)F)c1)c1cnc(N2CCC(CO)CC2)cc1-c1ccccc1Cl` [Example 52, 2-(3,5-Bis-trifluoromethyl-phenyl)-N-[4′-(2-chloro-phenyl)-4-hydroxymethyl-3,4,5,6-tetrahydro-2H-[1,2′]bipyridinyl-5′-yl]-N-methyl-isobutyramide], the pKi in test [1] was 8.10; on human NK1 receptor it was 8.96.
In the case of `Cc1ccccc1-c1cc(N2CC[C@H](O)C[C@@H]2CO)ncc1N(C)C(=O)C(C)(C)c1cc(C(F)(F)F)cc(C(F)(F)F)c1` (racemic) [Example 190, (2RS,4SR)-2-(3,5-Bis-trifluoromethyl-phenyl)-N-(4-hydroxy-2-hydroxymethyl-4′-o-tolyl-3,4,5,6-tetrahydro-2H-[1,2′]bipyridinyl-5′-yl)-N-methyl-isobutyramide], the negative-log Ki (pKi) in test [1] was 8.39; at human NK1 receptor, 8.80.
Taken in the same sequence, the figures for `CN(C(=O)C(C)(C)c1cc(C(F)(F)F)cc(C(F)(F)F)c1)c1cnc(N2CC[C@H](N(C)C)C2)cc1-c1ccccc1Cl` [Example 65, (S)-2-(3,5-Bis-trifluoromethyl-phenyl)-N-[4-(2-chloro-phenyl)-6-(3-dimethylamino-pyrrolidin-1-yl)-pyridin-3-yl]-N-methyl-isobutyramide] were 8.56 and 8.94.
`COc1ccc(-c2cc(N3C[C@H](O)C[C@H]3CO)ncc2N(C)C(=O)C(C)(C)c2cc(C(F)(F)F)cc(C(F)(F)F)c2)c(OC)n1` [Example 231, (2S,4R)-2-(3,5-Bis-trifluoromethyl-phenyl)-N-[6′-(4-hydroxy-2-hydroxymethyl-pyrrolidin-1-yl)-2,6-dimethoxy-[3,4′]bipyridinyl-3′-yl]-N-methyl-isobutyramide]: the results for the Ki (in test [1]; at human NK1 receptor) were 14.1 nM and 2.45 nM, respectively.
Take `Cc1ccccc1-c1cc(N2C[C@H](O)C[C@@H](O)C2)ncc1N(C)C(=O)C(C)(C)c1cc(C(F)(F)F)cc(C(F)(F)F)c1` [Example 179, (3R,5R)-2-(3,5-Bis-trifluoromethyl-phenyl)-N-(3,5-dihydroxy-4′-o-tolyl-3,4,5,6-tetrahydro-2H-[1,2′]bipyridinyl-5′-yl)-N-methyl-isobutyramide]: the pKi is 8.39 in test [1] and 8.82 on human NK1 receptor.
Taken in the same sequence, the figures for `CN(C(=O)C(C)(C)c1cc(C(F)(F)F)cc(C(F)(F)F)c1)c1cnc(N[C@H]2CC[C@H](O)CC2)cc1-c1ccc(Cl)cc1Cl` [Example 91, trans-2-(3,5-Bis-trifluoromethyl-phenyl)-N-[4-(2,4-dichloro-phenyl)-6-(4-hydroxy-cyclohexylamino)-pyridin-3-yl]-N-methyl-isobutyramide] were 8.25 and 8.61.
The like results for `CCN([C@H]1CCN(c2cc(-c3ccc(F)cc3C)c(N(C)C(=O)C(C)(C)c3cc(C(F)(F)F)cc(C(F)(F)F)c3)cn2)C1)S(C)(=O)=O` [Example 106] were, in that order, 8.33 and 9.23.
Taken in the same sequence, the figures for `COc1cc(Cl)cc(C(C)(C)C(=O)N(C)c2cnc(N3C[C@H](O)C[C@H]3CO)cc2-c2ccccc2C)c1` [Example 18, (2S,4R)-2-(3-Chloro-5-methoxy-phenyl)-N-[6-(4-hydroxy-2-hydroxymethyl-pyrrolidin-1-yl)-4-o-tolyl-pyridin-3-yl]-N-methyl-isobutyramide] were 8.60 and 8.93.
Take `Cc1cc(F)ccc1-c1cc(N2CCOC[C@H]2CO)ncc1N(C)C(=O)C(C)(C)c1cc(C(F)(F)F)cc(C(F)(F)F)c1` [Example 174, (R)-2-(3,5-Bis-trifluoromethyl-phenyl)-N-[4-(4-fluoro-2-methyl-phenyl)-6-(3-hydroxymethyl-morpholin-4-yl)-pyridin-3-yl]-N-methyl-isobutyramide]: the values for the pKi (in test [1]; on human NK1 receptor) were 8.59 and 8.78, respectively.
The like results for `CN(C(=O)C(C)(C)c1cc(C(F)(F)F)cc(C(F)(F)F)c1)c1cnc(N[C@H]2CC[C@H](O)CC2)cc1-c1ccccc1Cl` [Example 60, trans-2-(3,5-Bis-trifluoromethyl-phenyl)-N-[4-(2-chloro-phenyl)-6-(4-hydroxy-cyclohexylamino)-pyridin-3-yl]-N-methyl-isobutyramide] were, in that order, 8.10 and 8.90.
